The text below walks through data of a melting point compilation (Tetko et al.).

Structures are written as SMILES.

As a reminder, the melting point is the temperature, or range, at which the solid turns liquid.

In turn, `CC(=O)ON=NCc1ccc(C(=O)NCCCNC(=O)[C@@H]2CCCN2S(=O)(=O)c2ccc(Cl)c(COc3cccc4c(-n5ccnc5)cc(C)nc34)c2Cl)cc1` returned a melting point of 96 °C.

The compound `CC(CCC(=O)O)C1CCC2C3C(O)CC4CC(NC(=O)CNC(=O)CN(CCN(CC(=O)O)CC(=O)O)CCN(CC(=O)O)CC(=O)O)CCC4(C)C3CC(O)C12C` (stereo not given) gave a melting point of 120 to 125 °C.

On to `O=C(Nc1ccc(Cl)cc1)c1ccc(-c2nn[nH]n2)c(NC(=O)c2sc3ccccc3c2Cl)c1`, for which the melting point is above 250 °C.

`CCCCCCCCCCCCCCCCCCSCCOC1OC(COC(C)=O)C(OC2OC(COC(C)=O)C(OC3OC(COC(C)=O)C(OC(C)=O)C(OC(C)=O)C3OC(C)=O)C(OC(C)=O)C2OC(C)=O)C(OC(C)=O)C1N1C(=O)c2ccccc2C1=O` (stereo not given) yielded a melting point of 150 to 152 °C.

As to `C=CCC1C=C(C)CC(C)CC(OC)C2OC(O)(C(C)CC2OC)C(O)C(=O)N2CCCCC2C(=O)OC(C(C)=CC2CCC(O)C(OC)C2)C(C)C(O)CC1O` (stereo not given), the melting point was 130 to 150 °C.

For `CCCCCCCCCCCCN(CCCCCCCCCCCC)S(=O)(=O)c1cc(NS(=O)(=O)c2ccc(NC(C)=O)c3c(O)c(N=Nc4ccccc4OC)ccc23)c(O)c2ccccc12`, the melting point lay within 200 to 202 °C.

As for `CS(C)(=O)=NC(=O)c1cc(O)ccc1[N+](=O)[O-]`, the melting point lay within 146 to 149 °C.

Take `CCCCCCCCCCCCCCCCCCSc1nc(SCCCCCCCCCCCCCCCCCC)nc(-c2cc(C(C)(C)C)c(O)c(C(C)(C)C)c2)n1`: the melting point lay within 87 to 89 °C.

`CC(C)CC(NC(=O)OCc1ccccc1)C(=O)NC(C)C(=O)NC(CCCN(C(=N)NC(=O)OCc1ccccc1)C(=O)OCc1ccccc1)C(=O)Oc1cccc2ccccc12` (stereo not given) registered a melting point of 179 to 183 °C.

The compound `Nc1cc(C(F)(F)C(F)(F)OC(F)(F)C(F)(OC(F)(F)C(F)(F)OC(F)(C(F)(F)F)C(F)(F)OC(F)(F)C(F)(F)c2ccc(O)c(N)c2)C(F)(F)F)ccc1O` (stereo not given) registered a melting point of 55 to 58 °C.

The compound `COc1cccc2c1CC[C@@H](C(=O)O)C2` gave a melting point of 150 to 152 °C.

In turn, `CC(CCC(=O)NCCNCCCNC(=O)CN1CCN(CC(=O)O)CCN(CC(=O)O)CCN(CC(=O)O)CC1)C1CCC2C3C(O)CC4CC(O)CCC4(C)C3CC(O)C12C` (stereo not given) yielded a melting point of 154 °C.

As for `C=Cc1cccc2c(=O)c(C(=O)CCC)c[nH]c12`, the melting point is 206 to 208 °C.

On to `CCCCCCCCCCCCCCCCCCOC(=O)CCSCc1c(C)c(O)c(C)c(CSCCC(=O)OCCCCCCCCCCCCCCCCCC)c1C`, for which the melting point fell in the range of 66 to 70 °C.

For `O=C(Nc1ccc(Cl)cc1)NC1CCN(S(=O)(=O)c2ccc(C(=O)O)cc2)CC1`, the melting point lay within 266 to 270 °C.

Turning to `CC(C)(C)c1cc(C(C)(C)C)c(OP2OP(Oc3c(C(C)(C)C)cc(C(C)(C)C)cc3C(C)(C)C)OP(Oc3c(C(C)(C)C)cc(C(C)(C)C)cc3C(C)(C)C)O2)c(C(C)(C)C)c1` (stereo not given), the melting point was in the range of 226 to 244 °C.

`C=CC(=O)OCCCCCCCCCCCOc1ccc(-c2nc(-c3ccc(OCCCCCCCCCCCOC(=O)C=C)cc3O)nc(-c3ccc(OCCCCCCCCCCCOC(=O)C=C)cc3O)n2)c(O)c1` came in with a melting point of 72.8 °C.

For the compound `CN=S(=O)(Cc1ccc(Cl)nc1)c1nc(-c2ccc(OC)cc2)cs1` (stereo not given), the melting point lay within 160 to 163 °C.

The compound `CC(c1cc(C(C)(C)C)cc(C(C)(C)C)c1O)c1cc(C(C)(C)C)cc(C(C)(C)C)c1OP1Oc2c(cc(C(C)(C)C)cc2C(C)(C)C)C(C)c2cc(C(C)(C)C)cc(C(C)(C)C)c2O1` (stereo not given) showed a melting point of 219 to 221 °C.

With `CC(=O)C1CCC2C3CCC4CC(O)(C#Cc5cccnc5)CCC4(C)C3CCC12C` (stereo not given), the melting point was in the range of 230 to 235 °C.

Consider `CON=C(C(=O)NC1C(=O)N2C1CSC(c1ccc(Cl)cc1)C2(O)C(=O)OC(C)(C)C)c1csc(NC(c2ccccc2)(c2ccccc2)c2ccccc2)n1` (stereo not given), for which the melting point was found to be 191 °C.

In turn, `CC1CC2C3CCC4=CC(=O)C=CC4(C)C3(Cl)C(O)CC2(C)C1(O)C(=O)CO` (stereo not given) gave a melting point of 217 to 222 °C.

Compound `CC(C)[C@H](NC(=O)N(C)Cc1nccs1)C(=O)N[C@@H](Cc1ccccc1)[C@@H](O)[C@H](O)[C@H](Cc1ccccc1)NC(=O)[C@@H](NC(=O)N(C)Cc1nccs1)C(C)C` registered a melting point of 176 to 178 °C.

On to `COc1ccccc1C(=C/C=C/C(=O)O)c1ccccc1OC`, for which the melting point is 196 to 197 °C.

`CC1(C)CC(OC(=O)CCCCCCCCC(=O)OC2CC(C)(C)N(OC3CCCCCCCCCCC3)C(C)(C)C2)CC(C)(C)N1OC1CCCCCCCCCCC1` came in with a melting point of 70 to 78 °C.

As for `O=C(CC(CC(=O)OCc1cc(Br)cc(Br)c1O)C(=O)OCc1cc(Br)cc(Br)c1O)OCc1cc(Br)cc(Br)c1O`, the melting point lay within 100 to 102 °C.

In the case of `CC(=O)OC12COC1CC(O)C1(C)C(=O)C(O)C3=C(C)C(OC(=O)C(O)C(NC(=O)OC(C)(C)C)c4ccccc4)CC(O)(C(OC(=O)c4ccccc4)C21)C3(C)C` (stereo not given), the melting point was 196 to 203 °C.

Take `CCOC(=O)N1c2cc(OC)c(OC)cc2C(=O)C(=CN)C1C` (stereo not given): the melting point is 92 to 95 °C.

As for `CCCCCCCCCCCCCCCCOC(=O)c1ccc(C(=O)N(CCCCCCCCCCCCCCCC)OCCCCCCCCCCCCCCCC)nc1`, the melting point lay within 93 to 95 °C.

The compound `C=C(C)[C@@H]1CC[C@]2(C(=O)N[C@@H]3C[C@H](C(=O)OCc4ccccc4)C3(C)C)CC[C@]3(C)[C@H](CC[C@@H]4[C@@]5(C)CC[C@H](OC(=O)CC(C)(C)C(=O)O)C(C)(C)[C@@H]5CC[C@]43C)[C@@H]12` showed a melting point of 64.7 to 100 °C.

In turn, `CC(=O)OCC1OC(NC(=O)C2=CC=C(Cl)C(N)([N+](=O)[O-])C2)C(OC(C)=O)C(OC(C)=O)C1OC1OC(COC(C)=O)C(OC(C)=O)C(OC(C)=O)C1OC(C)=O` (stereo not given) came in with a melting point of 115 to 119 °C.

Take `CN=S(=O)(c1nc(-c2ccc(F)cc2)cs1)C(C)c1ccc(C(F)(F)F)nc1` (stereo not given): the melting point lay within 89 to 94 °C.

`CCCCCCCCCCCCCCCCCCOc1cc(OCCCOc2ccccc2)cc(N(CC(=O)OCc2ccccc2)CC(=O)OCc2ccccc2)c1` yielded a melting point of 59 to 61 °C.

In turn, `CCCC(=O)c1cnc2c(C(C)O)cccc2c1Nc1ccccc1C` (stereo not given) returned a melting point of 140 to 142 °C.

`CCc1c(CC[Si](Cl)(Cl)Cl)c(CC[Si](Cl)(Cl)Cl)c(CC[Si](Cl)(Cl)Cl)c(CC[Si](Cl)(Cl)Cl)c1CC[Si](Cl)(Cl)Cl`: the melting point is 195 to 198 °C.

Consider `CCCCCCCCCCCCCCCCCCOc1cc(OCCCCCc2cccc(OCc3ccccc3)c2OCc2ccccc2)cc(N(CC(=O)O)CC(=O)O)c1`, for which the melting point lay within 79 to 81 °C.

Regarding `CCCCCCCCCCCCS(=O)(=O)c1cc2c(cc1S(=O)(=O)CCCCCCCCCCCC)C(=O)c1c(c(O)c3cc(S(=O)(=O)CCCCCCCCCCCC)c(S(=O)(=O)CCCCCCCCCCCC)cc3c1O)C2=O`, the melting point lay within 180 to 183 °C.

Take `CCCCCCCCCCCCCCCCCC[Si](C)(C)O[C@@H]1c2cc(Br)ccc2-c2ccc(Br)cc2[C@H]1O[Si](C)(C)CCCCCCCCCCCCCCCCCC` (relative stereo): the melting point is 51.5 to 52.5 °C.

In the case of `CC(=O)OCC1OC(OC2C(COC(C)=O)OC(OC3C(COC(C)=O)OC(OCCBr)C(OC(C)=O)C3OC(C)=O)C(OC(C)=O)C2OC(C)=O)C(OC(C)=O)C(OC(C)=O)C1OC(C)=O` (stereo not given), the melting point was 179 to 181 °C.

In the case of `CC(C)[C@H](NC(=O)N1CCN(Cc2ccccc2)CC1)C(=O)N[C@@H](Cc1ccccc1)[C@@H](O)[C@H](O)[C@H](Cc1ccccc1)NC(=O)[C@@H](NC(=O)N1CCN(Cc2ccccc2)CC1)C(C)C`, the melting point was in the range of 178 to 179 °C.

In the case of `CCCCCCCC/C=C\CCCCCCCCNC(=O)OCCCCCCCCCCCCNC(=O)OC1CCN(C(=O)Oc2ccc(Oc3ccccc3)cc2)CC1`, the melting point lay within 83 to 84 °C.

As to `COC(=O)Cc1ccc(C(NC(=O)CCC(Cc2ccccc2)(NC(=O)c2ccc(N(C)C3CCc4cc5nc(C)n(COC(=O)C(C)(C)C)c(=O)c5cc43)cc2F)C(=O)O)C(=O)OC)cc1` (stereo not given), the melting point fell in the range of 85 to 90 °C.

With `Cc1ccccc1CNC(=O)[C@H]1N(C(=O)[C@@H](O)[C@H](Cc2ccccc2)NC(=O)C(C)C(C)C(=O)OC[C@H]2O[C@@H](n3cc(C)c(=O)[nH]c3=O)CC2N=[N+]=[N-])CSC1(C)C` (stereo not given in full), the melting point lay within 116 to 118 °C.

As to `CCOC(=O)c1cn(C23CC(C2)C3)c2c(F)c(F)c(F)cc2c1=O`, the melting point was 176 to 178 °C.

`CC(=O)OCC1OC(OC2C(COC(C)=O)OC(OC3C(CO)OC(OCCBr)C(O)C3O)C(OC(C)=O)C2OC(C)=O)C(OC(C)=O)C(OC(C)=O)C1OC(C)=O` (stereo not given) yielded a melting point of 178 to 180 °C.

With `CC(C)(CCCCCCCCC(C)(C)NC(=O)C(C)(C)Cc1cc(C(C)(C)C)c(O)c(C(C)(C)C)c1)NC(=O)C(C)(C)Cc1cc(C(C)(C)C)c(O)c(C(C)(C)C)c1`, the melting point was determined as 126 °C.

For `N=C(NC(=O)OCc1ccccc1)N(CCCC(NC(=O)C(Cc1ccccc1)NC(=O)OCc1ccccc1)C(=O)Oc1cccc2ccccc12)C(=O)OCc1ccccc1` (stereo not given), the melting point was in the range of 125 to 130 °C.

`COc1cc(OC)c(/C=C/C(c2ccc(OC)c(NC(=O)CN3CCN(C)CC3)c2)S(=O)(=O)C(/C=C/c2c(OC)cc(OC)cc2OC)c2ccc(OC)c(NC(=O)CN3CCN(C)CC3)c2)c(OC)c1` (stereo not given): the melting point fell in the range of 176 to 178 °C.

`CCCCCCCCCCCCCCCCCCCCCCCCCC(=O)NC(COC1OC(CO)C(O)C(O)C1O)C(O)C(O)CCCCCCCCCCCCCC` (stereo not given) returned a melting point of 190 °C.

Compound `CCCc1[nH]c2ccccc2c1C1(c2ccc(N(CC)CC)cc2OCCCCOc2cc(N(CC)CC)ccc2C2(c3c(CCC)[nH]c4ccccc34)OC(=O)c3ccccc32)OC(=O)c2ccccc21` (stereo not given) yielded a melting point of 140 °C.

`[C-]#[N+]C(=CC=C1C=C(c2ccccc2)C=C(c2ccccc2)O1)C(=O)OCC` returned a melting point of 150 to 152 °C.

With `CC(C)CCCOC(=O)NCCc1nc(-c2ccc(-c3ccccc3)cc2)c[nH]1`, the melting point came out at 128 °C.

On to `CCCCCCCCNC(=O)CO`, for which the melting point came out at 80 °C.

Compound `COc1cc(OC)c(/C=C/C(c2ccc(OC)c(NC(=O)c3ccc([N+](=O)[O-])cc3)c2)S(=O)(=O)C(/C=C/c2c(OC)cc(OC)cc2OC)c2ccc(OC)c(NC(=O)c3ccc([N+](=O)[O-])cc3)c2)c(OC)c1` (stereo not given) came in with a melting point of 206 to 208 °C.

As for `O=C(O)c1ccccc1Oc1ccc(C(F)(F)F)cc1N(S(=O)(=O)c1cc(C(F)(F)F)cc(C(F)(F)F)c1)S(=O)(=O)c1cc(C(F)(F)F)cc(C(F)(F)F)c1`, the melting point fell in the range of 204 to 205 °C.
